Experimental data as given in US20080275058A1, “N-Substituted-1H-Quinoline-2,4-Diones, Preparation Method Thereof, And Pharmaceutical Composition Containing The Same” (KOREA RESEARCH INSTITUTE OF CHEMICAL TECHNOLOGY, priority 2005, published 2008).
Like-named read-outs stand apart in the source and are kept apart here.

Experiments:
[1] = molecular target: T1, Human serotonin 5-HT6 receptor (Homo sapiens, UniProt P50406); experiment: [3H]LSD binding assay on cloned 5-HT6 receptor membranes
T1 construct: made in house; host or cells: insect Sf21 cells (baculovirus vector BacPAK8)
T1 sequence (P50406 whole entry): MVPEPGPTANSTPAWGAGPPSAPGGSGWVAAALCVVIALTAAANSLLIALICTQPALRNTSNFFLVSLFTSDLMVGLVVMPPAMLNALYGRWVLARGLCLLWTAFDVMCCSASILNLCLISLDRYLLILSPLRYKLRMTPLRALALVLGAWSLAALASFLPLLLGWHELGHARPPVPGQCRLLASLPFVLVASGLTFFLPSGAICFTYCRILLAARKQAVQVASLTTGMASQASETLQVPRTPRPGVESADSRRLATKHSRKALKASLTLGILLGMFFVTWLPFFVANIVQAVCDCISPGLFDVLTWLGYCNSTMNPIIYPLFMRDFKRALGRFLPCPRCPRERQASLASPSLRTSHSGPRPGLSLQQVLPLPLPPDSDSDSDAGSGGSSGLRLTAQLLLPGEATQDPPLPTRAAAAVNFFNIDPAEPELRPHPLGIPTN

5-HT7 = molecular target: T2, 5-HT7 (Homo sapiens, UniProt P34969); experiment: Radioligand binding, 5-HT7 ([3H]LSD); conditions: Table 4; [3H]LSD 3 nM; read-out: Binding affinity, IC50 (nM) 5-HT7
T2 construct: purchased Euroscreen/BioSignal Packard Inc
T2 sequence (P34969 whole entry): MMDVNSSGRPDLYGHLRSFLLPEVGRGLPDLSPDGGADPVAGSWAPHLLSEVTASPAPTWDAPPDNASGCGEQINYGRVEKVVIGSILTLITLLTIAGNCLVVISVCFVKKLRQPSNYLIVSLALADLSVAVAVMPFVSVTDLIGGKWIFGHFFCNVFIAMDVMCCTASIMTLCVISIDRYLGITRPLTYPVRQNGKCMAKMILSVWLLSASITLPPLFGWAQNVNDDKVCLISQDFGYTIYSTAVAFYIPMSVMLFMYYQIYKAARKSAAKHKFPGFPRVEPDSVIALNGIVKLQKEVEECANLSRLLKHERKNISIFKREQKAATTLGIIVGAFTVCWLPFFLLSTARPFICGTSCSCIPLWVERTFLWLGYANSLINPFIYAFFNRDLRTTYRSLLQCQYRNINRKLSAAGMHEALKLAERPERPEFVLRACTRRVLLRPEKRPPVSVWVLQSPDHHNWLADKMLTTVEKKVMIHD

5-HT1a = molecular target: T3, 5-HT1a (Homo sapiens, UniProt P08908); experiment: Radioligand binding, 5-HT1a ([3H]8-OH-DPAT); conditions: Table 4; [3H]8-OH-DPAT 0.5 nM; read-out: Binding affinity, IC50 (nM) 5-HT1a
T3 construct: purchased Euroscreen/BioSignal Packard Inc
T3 sequence (P08908 1-422): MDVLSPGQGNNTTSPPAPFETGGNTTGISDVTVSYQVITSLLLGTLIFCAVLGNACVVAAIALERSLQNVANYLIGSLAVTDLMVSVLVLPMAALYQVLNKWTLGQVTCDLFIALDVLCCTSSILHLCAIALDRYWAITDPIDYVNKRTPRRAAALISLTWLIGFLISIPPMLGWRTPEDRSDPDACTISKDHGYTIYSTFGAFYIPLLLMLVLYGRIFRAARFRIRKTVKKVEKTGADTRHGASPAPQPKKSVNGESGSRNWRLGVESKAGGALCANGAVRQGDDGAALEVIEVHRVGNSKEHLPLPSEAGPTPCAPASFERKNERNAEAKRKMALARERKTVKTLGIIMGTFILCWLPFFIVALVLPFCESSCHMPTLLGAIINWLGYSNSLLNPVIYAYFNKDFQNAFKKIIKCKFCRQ
Procedure: Radioligand bindings were performed according to the test method provided by the supplier of receptor membrane (Euroscreen/BioSignal Packard Inc.). The detailed assay conditions and the results were shown in the following Table 3 and Table 4, respectively.

5-HT2a = molecular target: T4, 5-HT2a (Homo sapiens, UniProt P28223); experiment: Radioligand binding, 5-HT2a ([3H]Ketanserin); conditions: Table 4; [3H]Ketanserin 1 nM; read-out: Binding affinity, IC50 (nM) 5-HT2a
T4 construct: purchased Euroscreen/BioSignal Packard Inc
T4 sequence (P28223 whole entry): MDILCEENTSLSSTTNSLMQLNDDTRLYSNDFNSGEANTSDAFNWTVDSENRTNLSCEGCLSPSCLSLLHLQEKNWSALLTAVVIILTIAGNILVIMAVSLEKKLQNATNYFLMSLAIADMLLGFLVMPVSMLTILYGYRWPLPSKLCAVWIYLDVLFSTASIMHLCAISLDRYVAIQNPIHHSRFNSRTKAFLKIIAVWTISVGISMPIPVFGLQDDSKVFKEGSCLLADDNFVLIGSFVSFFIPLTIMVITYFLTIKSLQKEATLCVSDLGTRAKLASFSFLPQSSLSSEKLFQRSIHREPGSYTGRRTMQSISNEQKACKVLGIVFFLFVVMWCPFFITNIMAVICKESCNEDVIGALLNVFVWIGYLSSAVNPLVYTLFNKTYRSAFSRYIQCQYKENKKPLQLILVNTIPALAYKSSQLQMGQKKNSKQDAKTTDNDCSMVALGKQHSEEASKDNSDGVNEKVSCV

5-HT2c = molecular target: T5, 5-HT2c (Homo sapiens, UniProt P28335); experiment: Radioligand binding, 5-HT2c ([3H]Mesulergine); conditions: Table 4; [3H]Mesulergine 1 nM; read-out: Binding affinity, IC50 (nM) 5-HT2c
T5 construct: purchased Euroscreen/BioSignal Packard Inc
T5 sequence (P28335 33-458): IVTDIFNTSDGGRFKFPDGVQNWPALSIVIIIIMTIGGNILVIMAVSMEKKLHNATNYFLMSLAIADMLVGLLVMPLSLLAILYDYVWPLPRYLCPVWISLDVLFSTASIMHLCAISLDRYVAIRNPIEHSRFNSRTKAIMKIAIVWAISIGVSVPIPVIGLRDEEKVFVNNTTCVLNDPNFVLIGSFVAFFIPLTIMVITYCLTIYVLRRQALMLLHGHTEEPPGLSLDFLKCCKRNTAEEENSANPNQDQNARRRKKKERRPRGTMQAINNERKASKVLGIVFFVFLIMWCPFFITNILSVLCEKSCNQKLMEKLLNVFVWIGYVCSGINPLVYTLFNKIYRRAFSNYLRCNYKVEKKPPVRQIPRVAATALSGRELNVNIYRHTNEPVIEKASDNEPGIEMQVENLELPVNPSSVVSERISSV

D1 = D1 (Homo sapiens, UniProt P21728); experiment: Radioligand binding, dopamine D1; conditions: Table 4; read-out: Binding affinity, IC50 (nM) D1
Sequence of D1 (P21728 whole entry): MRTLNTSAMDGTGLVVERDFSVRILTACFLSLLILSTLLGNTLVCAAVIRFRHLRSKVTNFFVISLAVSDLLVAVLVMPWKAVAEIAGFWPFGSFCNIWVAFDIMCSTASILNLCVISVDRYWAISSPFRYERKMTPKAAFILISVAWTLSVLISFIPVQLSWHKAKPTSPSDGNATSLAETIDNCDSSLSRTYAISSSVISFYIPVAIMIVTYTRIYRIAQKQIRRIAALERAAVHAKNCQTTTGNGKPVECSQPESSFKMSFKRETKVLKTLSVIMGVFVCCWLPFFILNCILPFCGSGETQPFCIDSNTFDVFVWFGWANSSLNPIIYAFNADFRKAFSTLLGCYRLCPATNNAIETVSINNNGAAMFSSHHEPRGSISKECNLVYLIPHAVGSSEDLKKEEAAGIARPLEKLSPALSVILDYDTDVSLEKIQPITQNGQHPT

hD2L = molecular target: T6, hD2L (Homo sapiens, UniProt P14416); experiment: Radioligand binding, dopamine D2 ([3H]spiperone); conditions: Table 4; [3H]spiperone 1 nM; read-out: Binding affinity, IC50 (nM) D2
T6 construct: purchased BioSignal Packard Inc., Montreal, Canada
T6 sequence (P14416 whole entry): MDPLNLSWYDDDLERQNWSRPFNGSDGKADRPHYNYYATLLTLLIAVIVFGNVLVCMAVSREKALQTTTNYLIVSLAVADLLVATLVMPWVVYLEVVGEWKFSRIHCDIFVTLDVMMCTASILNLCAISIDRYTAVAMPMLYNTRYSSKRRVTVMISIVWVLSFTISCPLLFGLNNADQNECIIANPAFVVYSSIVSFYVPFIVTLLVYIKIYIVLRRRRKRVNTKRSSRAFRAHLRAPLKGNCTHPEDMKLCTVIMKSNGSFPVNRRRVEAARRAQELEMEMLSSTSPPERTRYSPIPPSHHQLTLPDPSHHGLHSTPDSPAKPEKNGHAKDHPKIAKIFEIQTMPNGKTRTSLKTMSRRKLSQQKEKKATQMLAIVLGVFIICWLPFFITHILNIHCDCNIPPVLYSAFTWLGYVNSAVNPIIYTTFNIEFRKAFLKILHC
Procedure: (§1) 2-2: Binding assays of Dopamine Receptor Family
(§2) The radioligands used were [^3H] spiperone (for hD2L and hD3 receptors, 1 nM) and [^3H] YM-09151-2 (for hD4.2 receptor, 0.06 nM). Radioligand bindings were performed by the protocols provided by the supplier of receptor membranes (BioSignal Packard Inc., Montreal, Canada). Briefly, the buffer used in D2 or D3 receptor binding assay was 50 mM Tris-HCl (pH 7.4), 10 mM MgCl2, 1 mM EDTA, or 50 mM Tris-HCl (pH 7.4), 5 mM MgCl2, 5 mM EDTA, 5 mM KCl, 1.5 mM CaCl2, 120 mM NaCl, respectively. In [^3H] YM-09151-2 receptor binding assays, the buffer containing 50 mM Tris-HCl (pH 7.4), 5 mM MgCl2, 5 mM EDTA, 5 mM KCl and 1.5 mM CaCl2 was used. […] Competition binding studies were carried out with 7-8 concentrations of the test compound run in duplicate tubes, and isotherms from three assays were calculated by computerized nonlinear regression analysis (GraphPad Prism Program, San Diego, […]) to yield median inhibitory concentration (IC50) values.

hD3 = molecular target: T7, hD3 (Homo sapiens, UniProt P35462); experiment: Radioligand binding, dopamine D3 ([3H]spiperone); conditions: Table 4; [3H]spiperone 1 nM; read-out: Binding affinity, IC50 (nM) D3
T7 construct: purchased BioSignal Packard Inc., Montreal, Canada
T7 sequence (P35462 whole entry): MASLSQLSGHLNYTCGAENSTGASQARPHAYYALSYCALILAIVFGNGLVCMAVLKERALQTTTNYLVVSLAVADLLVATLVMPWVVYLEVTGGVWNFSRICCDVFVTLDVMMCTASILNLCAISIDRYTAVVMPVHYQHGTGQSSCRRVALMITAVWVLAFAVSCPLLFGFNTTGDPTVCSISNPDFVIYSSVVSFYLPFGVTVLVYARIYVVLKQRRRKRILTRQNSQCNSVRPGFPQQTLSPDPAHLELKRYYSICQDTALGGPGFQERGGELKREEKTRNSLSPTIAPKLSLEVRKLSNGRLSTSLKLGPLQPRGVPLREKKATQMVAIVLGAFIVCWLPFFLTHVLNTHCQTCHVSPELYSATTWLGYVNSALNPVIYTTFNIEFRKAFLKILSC
Procedure: as §1, §2

hD4.2 receptor = molecular target: T8, hD4.2 receptor (Homo sapiens, UniProt P21917, DEL265-296); experiment: Radioligand binding, dopamine D4 ([3H]YM-09151-2); conditions: Table 4; [3H]YM-09151-2 0.06 nM; read-out: Binding affinity, IC50 (nM) D4
T8 construct: purchased BioSignal Packard Inc., Montreal, Canada
T8 sequence (P21917 with tags, fused parts or gaps DEL265-296): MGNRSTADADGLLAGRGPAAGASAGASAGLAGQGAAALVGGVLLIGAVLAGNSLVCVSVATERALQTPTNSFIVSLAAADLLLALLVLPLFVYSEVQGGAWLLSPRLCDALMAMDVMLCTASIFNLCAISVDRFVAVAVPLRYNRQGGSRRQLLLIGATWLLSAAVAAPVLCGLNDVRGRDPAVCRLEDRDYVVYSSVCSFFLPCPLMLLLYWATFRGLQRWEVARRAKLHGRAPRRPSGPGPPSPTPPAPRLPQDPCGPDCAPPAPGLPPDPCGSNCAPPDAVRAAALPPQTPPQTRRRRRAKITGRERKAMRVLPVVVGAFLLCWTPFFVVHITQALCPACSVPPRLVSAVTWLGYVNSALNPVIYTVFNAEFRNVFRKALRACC
Procedure: as §1, §2

[2] = Table 2, 1.87 nM [3H]LSD, 37 C, 60 min, read-out: IC50 (nM), binding affinity to the 5-HT6 receptor
[3] = Table 4, read-out: Binding affinity, IC50 (nM) 5-HT6

Compound	IC50 [1, 2]	IC50 [1, 3]	IC50 (5-HT7)	IC50 (5-HT1a)	IC50 (5-HT2a)	IC50 (5-HT2c)	IC50 (D1)	IC50 (hD2L)	IC50 (hD3)	IC50 (hD4.2 receptor)	melting point	binding affinity at 5-HT6 receptor labeled by [3H]LSD, in words ([1]; comment on Table 2)
COc1ccc(C2(C)C(=O)c3c(N4CCNCC4)cc(Cl)cc3N(Cc3cccnc3)C2=O)cc1 (stereo not drawn) [Example 37, 7-Chloro-3-(4-methoxy-phenyl)-3-methyl-5-piperazin-1-yl-1-pyridin-3-ylmethyl-1H-quinoline-2,4-dione]	21.4 nM	19.8 nM	5990 nM	9060 nM	6020 nM	8050 nM	7680 nM	8050 nM	> 10000 nM	9380 nM	160 to 162 °C	
COc1ccc(C2(C)C(=O)c3c(N4CCNCC4)cc(Cl)cc3N(Cc3ccc(-c4ccccc4)cc3)C2=O)cc1 (stereo not drawn) [Example 41, 1-Biphenyl-4-ylmethyl-7-chloro-3-(4-methoxy-phenyl)-3-methyl-5-piperazin-1-yl-1H-quinoline-2,4-dione]	351 nM	15.5 nM	7010 nM	7810 nM	8470 nM	8090 nM	6000 nM	7680 nM	9000 nM	9110 nM	142 to 144 °C	
CC1(c2ccc(O)cc2)C(=O)c2c(N3CCNCC3)cc(Cl)cc2N(Cc2ccc(-c3ccccc3)cc2)C1=O (stereo not drawn) [Example 42, 1-Biphenyl-4-ylmethyl-7-chloro-3-(4-hydroxy-phenyl)-3-methyl-5-piperazin-1-yl-1H-quinoline-2,4-dione]	164 nM	16.1 nM	6730 nM	6640 nM	8190 nM	7600 nM	6120 nM	6850 nM	9210 nM	9410 nM	240 to 241 °C	
COc1ccc(C2(C)C(=O)c3c(N4CCNCC4)cc(Cl)cc3N(Cc3nc4ccccc4[nH]3)C2=O)cc1 (stereo not drawn) [Example 43, 1-(1H-Benzoimidazol-2-ylmethyl)-7-chloro-3-(4-methoxy-phenyl)-3-methyl-5-piperazin-1-yl-1H-quinoline-2,4-dione]	137 nM	19.3 nM	9520 nM	8020 nM	5800 nM	7890 nM	6350 nM	9010 nM	9440 nM	9470 nM	178 to 179 °C	
COc1ccc(C2(C)C(=O)c3c(N4CCNCC4)cc(Cl)cc3N(Cc3ccc4ccccc4n3)C2=O)cc1 (stereo not drawn) [Example 44, 7-Chloro-3-(4-methoxy-phenyl)-3-methyl-5-piperazin-1-yl-1-quinolin-2-ylmethyl-1H-quinoline-2,4-dione]	6.9 nM	19 nM	7650 nM	7530 nM	6100 nM	7690 nM	7650 nM	> 1000 nM	9840 nM	9270 nM	200 to 201 °C	
CC1(c2ccc(O)cc2)C(=O)c2c(N3CCNCC3)cc(Cl)cc2N(Cc2ccc3ccccc3n2)C1=O (stereo not drawn) [Example 45, 7-Chloro-3-(4-hydroxy-phenyl)-3-methyl-5-piperazin-1-yl-1-quinolin-2-ylmethyl-1H-quinoline-2,4-dione]	11.4 nM	16.4 nM	9450 nM	> 10000 nM	> 10000 nM	> 1000 nM	8410 nM	7680 nM	9160 nM	8510 nM	278 to 279 °C	
CCN1C(=O)C(C)(c2ccc(OC)cc2)C(=O)c2c(N3CCNCC3)cc(Cl)cc21 (stereo not drawn) [Example 46, 7-Chloro-1-ethyl-3-(4-methoxy-phenyl)-3-methyl-5-piperazin-1-yl-1H-quinoline-2,4-dione]	49.1 nM	15.8 nM	7950 nM	6700 nM	6360 nM	9110 nM	7890 nM	8570 nM	9410 nM	9570 nM	127 to 129 °C	
COc1ccc(C2(C)C(=O)c3c(N4CCNCC4)cc(Cl)cc3N(CC3CCCCC3)C2=O)cc1 (stereo not drawn) [Example 48, 7-Chloro-1-cyclohexylmethyl-3-(4-methoxy-phenyl)-3-methyl-5-piperazin-1-yl-1H-quinoline-2,4-dione]	251 nM	16 nM	8520 nM	7540 nM	5910 nM	8660 nM	7650 nM	7510 nM	8990 nM	9010 nM	127 to 128 °C	
CC1(c2ccc(O)cc2)C(=O)c2c(N3CCNCC3)cc(Cl)cc2N(CC2CCCCC2)C1=O (stereo not drawn) [Example 49, 7-Chloro-1-cyclohexylmethyl-3-(4-hydroxy-phenyl)-3-methyl-5-piperazin-1-yl-1H-quinoline-2,4-dione]	11.7 nM	17.5 nM	9510 nM	6300 nM	5810 nM	7530 nM	8140 nM	> 10000 nM	8680 nM	8780 nM	175 to 176 °C	
COc1cccc(C2(C)C(=O)c3c(N4CCNCC4)cc(Cl)cc3N(Cc3ccccc3)C2=O)c1 (stereo not drawn) [Example 50, 1-Benzyl-7-chloro-3-(3-methoxy-phenyl)-3-methyl-5-piperazin-1-yl-1H-quinoline-2,4-dione]	1.8 nM	18.4 nM	7640 nM	> 1000 nM	9150 nM	7470 nM	7740 nM	7190 nM	9760 nM	9040 nM	110 to 112 °C	significant affinities
